Like-named read-outs stand apart in the source and are kept apart here.
Columns and labels:
[1] = test system: 3T3-L1 cells; assay: Induction of adipocyte differentiation (amount of triglyceride biosynthesis); format: cell-based; conditions: Mus musculus
Outline: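 Differentiation scored as X=(S−N)/(P−N), ranked +++, ++, +, +/−, where S, N and P are triglyceride with compound, DMSO and insulin; triglyceride was extracted with hexane:isopropanol (3:2) and assayed twice. Compound was added after 7 days' growth, first with 0.25 μM dexamethasone (45 h), then for 7 days.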

[2] = biological target: T1, fusion protein of an yeast GAL4 DNA-binding domain and a human PPARγ ligand-binding site (Homo sapiens, UniProt P37231); assay: PPARγ activation reporter assay in CV-1 cells; format: cell-based; conditions: test compound 10 μM, pFA-CMV (PPARγ), 24 hours
T1 construct: expressed in transfected cells; host or cells: CV-1 cells
T1 sequence (P37231 204-505): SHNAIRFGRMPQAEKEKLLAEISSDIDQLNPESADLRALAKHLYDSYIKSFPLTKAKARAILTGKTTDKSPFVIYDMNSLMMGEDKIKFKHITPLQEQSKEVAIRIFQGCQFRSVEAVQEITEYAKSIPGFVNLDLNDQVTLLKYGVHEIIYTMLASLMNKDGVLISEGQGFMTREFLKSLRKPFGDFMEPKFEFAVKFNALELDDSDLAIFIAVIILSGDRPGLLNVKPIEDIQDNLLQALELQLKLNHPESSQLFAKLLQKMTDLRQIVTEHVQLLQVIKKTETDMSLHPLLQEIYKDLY
Protocol: The activation ability for PPARγ was determined by a reporter assay using a fusion protein of an yeast GAL4 DNA-binding domain and a human PPARγ ligand-binding site.
A plasmid (pGAL4/GL3-Promoter) was prepared by repeating five times insertion of a binding site (UASg) of GAL4 into a multicloning site of a pGL3-Promoter vector (Promega). In addition, a ligand-binding site (amino acid sequence 204 to 505) of the PPARγ gene was cloned from a human liver cDNA library (manufactured by TAKARA BIO INC.) by a polymerase chain reaction, and the ligand-binding site was inserted into a multicloning site of a pFA-CMV plasmid vector ([…]) to give pFA-CMV (PPARγ).
Escherichia coli JM-109 strain was transformed with each of the two kinds of the plasmids obtained by the above-mentioned procedures, and pFA-CMV and pRL-TK (Promega) according to a conventional method. Each of the Escherichia coli cells was cultured with shaking at 37° C. for 18 hours in an LB medium containing 100 μg/mL ampicillin. Thereafter, the plasmids of each were purified according to the procedure manual of QIAfilter Plasmid midi Kit (QIAGEN).
CV-1 cells were seeded in a 24-well plate so as to have a density of 4×10^4 cells per well. Thereafter, the cells were cultured in a Dulbecco's modified Eagle's medium (manufactured by Sigma, D5796) containing 10% fetal bovine serine (manufactured by Bio Whittaker) for 24 hours under the conditions of 37° C. and 5% CO2. Thereafter, in accordance with the procedure manual of LipofectAmine 2000 (Invitrogen), the gene transfer was carried out into the CV-1 cells with 200 ng of pFA-CMV (PPARγ) or pFA-CMV, 400 ng of pGAL4/GL3-promoter, and 200 ng of pRL-TK per well, and thereafter the cells were cultured for 24 hours under the conditions of 37° C. and 5% CO2. Thereafter, the medium was exchanged with a Dulbecco's modified Eagle's medium to which a test compound dissolved in dimethyl sulfoxide was previously added so as to have a final concentration of 10 μM. Thereafter, the cells were cultured for additional 24 hours. In addition, there were set a group with addition of dimethyl sulfoxide in place of a test compound as a negative control, and a group with addition of troglytazone (manufactured by Calbiochem) so as to have a final concentration of 3 μM as a positive control. The cells were washed with a phosphate buffered saline, and 5× PassiveLysisBuffer (Promega) which was previously diluted in 5-folds with distilled water was added thereto in an amount of 100 μL per well. The mixture was shaken at room temperature for 15 minutes to lyse cells. Twenty microliters of this lysed solution was applied in accordance with the procedure manual of Dual Luciferase Assay System (Promega), and a fluorescent luciferase emission intensity and a Renilla mullerei luciferase emission intensity were measured using Mithras-LB940 (BERTHOLD TECHNOLOGIES GmbH). The enhancing action for transcriptional activation of each test compound was shown as a relative value obtained by calculating a ratio of the fluorescent luciferase emission intensity to the Renilla mullerei luciferase emission intensity, wherein the value of the group with addition of the negative control is defined as 1.

[3] = 3T3-L1, X=(S−N)/(P−N) of amount of triglyceride, P=insulin positive control, read-out: Action for Induction of Differentiation
[4] = 3T3-L1, 3 μM, X=(S−N)/(P−N) of amount of triglyceride, P=insulin positive control, read-out: Action for Induction of Differentiation
[5] = 3T3-L1, 10 μM, X=(S−N)/(P−N) of amount of triglyceride, P=insulin positive control, read-out: Action for Induction of Differentiation
[6] = 3T3-L1, read-out: Action for Induction of Differentiation

| Structure (SMILES) | activation at 1.3 µM ([1]; 3T3-L1, 1.3 μM, X=(S−N)/(P−N) of amount of triglyceride, P=insulin positive control, read-out: Action for Induction of Differentiation) [%] | activation at 4 µM ([1]; 3T3-L1, 4 μM, X=(S−N)/(P−N) of amount of triglyceride, P=insulin positive control, read-out: Action for Induction of Differentiation) [%] | activation at 13 µM ([1]; 3T3-L1, 13 μM, X=(S−N)/(P−N) of amount of triglyceride, P=insulin positive control, read-out: Action for Induction of Differentiation) [%] | enhancing action for transcriptional activation (PPARγ) [2] | activation at 1 µM [1, 3] [%] | activation at 3 µM [1, 4] [%] | activation at 10 µM [1, 5] [%] | activation at 3 µM [1, 6] [%] | activation at 10 µM [1, 6] [%] |
| --- | --- | --- | --- | --- | --- | --- | --- | --- | --- |
| COc1ccc(C(=O)/C=C/c2ccc(O)cc2)c2c1CC(O)C(C)(C)O2 (stereo not drawn) [Xanthoangelol H] | 30 to 60 | 60 to 100 | > 100 | no enhancing action for transcriptional activation was found |  |  |  |  |  |
| CC(C)=CCC/C(C)=C/Cc1c(O)ccc(C(=O)/C=C/c2ccc(O)cc2)c1O [Xanthoangelol, 4,2′,4′-Trihydroxy-3′-geranylchalcone] |  |  |  | no enhancing action for transcriptional activation was found | 15 to 30 | 60 to 100 | > 100 |  |  |
| COc1ccc(C(=O)/C=C/c2ccc(O)cc2)c(O)c1CC=C(C)C [4-Hydroxyderricin, 4,2′-Dihydroxy-3′-prenyl-4′-methoxychalcone] |  |  |  | no enhancing action for transcriptional activation was found |  |  |  | 60 to 100 | > 100 |
| COc1ccc(C(=O)/C=C/c2ccc(O)cc2)c(O)c1C/C=C(\C)CCC=C(C)C [Xanthoangelol F, 4,2′-Dihydroxy-3′-geranyl-4′-methoxychalcone] |  |  |  | no enhancing action for transcriptional activation was found | 60 to 100 | > 100 | > 100 |  |  |
